Data as given in US20060264447A1, “Fungicidal mixtures for controlling rice pathogens” (priority 2003, published 2006).

Tested on: Cochliobolus miyabeanus
Assay: Activity against brown spot of rice caused by Cochliobolus miyabeanus, protective application
Type: in vivo
Conditions: individual active compound, rice seedlings Tai-Nong 67, protective spray, rated after six days
Protocol: The active compounds, separately or jointly, were prepared as a stock solution with 0.25% by weight of active compound in acetone or DMSO. 1% by weight of the emulsifier Uniperol® EL (wetting agent having emulsifying and dispersing action based on ethoxylated alkylphenols) was added to this solution, and the solution was diluted with water to the desired concentration.
Leaves of potted rice seedlings of the cultivar “Tai-Nong 67” were sprayed to runoff point with an aqueous suspension of the concentration of active compound stated below. The next day, the plants were inoculated with an aqueous spore suspension of Cochliobolus miyabeanus. The test plants were then placed in climatized chambers at 22-24° C. and 95-99% relative atmospheric humidity for six days. The extent of the development of the infection on the leaves was then determined visually.
Evaluation is carried out by determining the percentage of infected plants. These percentages were converted into efficacies.
The efficacy (E) is calculated as follows using Abbot's formula: E=(1−α/β)·100 α corresponds to the fungicidal infection of the treated plants in % and β corresponds to the fungicidal infection of the untreated (control) plants in %
An efficacy of 0 means that the infection level of the treated plants corresponds to that of the untreated control plants; an efficacy of 100 means that the treated plants are not infected.
The expected efficacies of mixtures of active compounds are determined using Colby's formula (Colby, R. S. Weeds, 15, 20-22, 1967) and compared with the observed efficacies.
Colby's formula: E=x+y−x·y/100 • E expected efficacy, expressed in % of the untreated control, when using the mixture of the active compounds A and B at the concentrations a and b • x efficacy, expressed in % of the untreated control, when using the active compound A at the concentration a • y efficacy, expressed in % of the untreated control, when using the active compound B at the concentration b

With CC1CCN(c2c(-c3c(F)cccc3Cl)c(Cl)nc3ncnn23)CC1 [A] the “Efficacy in % of the untreated control” value (4 ppm in the spray liquor) was 29% and the “Efficacy in % of the untreated control” value (16 ppm in the spray liquor) was 53%.
C[C@H](Nc1c(-c2c(F)cc(F)cc2F)c(Cl)nc2ncnn12)C(F)(F)F [B] was tested, and the “Efficacy in % of the untreated control” value (4 ppm in the spray liquor) was 5% and the “Efficacy in % of the untreated control” value (16 ppm in the spray liquor) was 41%.
With CC1CCN(c2c(-c3c(F)cc(F)cc3F)c(Cl)nc3ncnn23)CC1 [compound I, 5-chloro-7-(4-methylpiperidin-1-yl)-6-(2,4,6-trifluorophenyl)-[1,2,4]triazolo[1,5-a]pyrimidine] the “Efficacy in % of the untreated control” value (4 ppm in the spray liquor) was 5% and the “Efficacy in % of the untreated control” value (16 ppm in the spray liquor) was 17%.
O=[N+]([O-])c1cc(C(F)(F)F)c(Cl)c([N+](=O)[O-])c1Nc1ncc(C(F)(F)F)cc1Cl [compound II, 3-chloro-N-[3-chloro-2,6-dinitro-4-(trifluoromethyl)phenyl]-5-(trifluoromethyl)-2-pyridinamine] was tested, and the “Efficacy in % of the untreated control” value (4 ppm in the spray liquor) was 5% and the “Efficacy in % of the untreated control” value (16 ppm in the spray liquor) was 17%.
